Reference: PMC4769701, “Discovery and characterization of a high-affinity and high-specificity peptide ligand LXY30 for in vivo targeting of α3 integrin-expressing human tumors” (EJNMMI Research, 2016)
Positions of bridges follow the written chain, without caps; N, C: chain ends. Non-standard residues stand in square brackets, D forms with d. Residues, ends and D or L forms follow the SMILES beside them. Phe(3,4,5-F3) = N[C@@H](Cc1cc(F)c(F)c(F)c1)C(=O)O; Phe(3,5-F2) = N[C@@H](Cc1cc(F)cc(F)c1)C(=O)O; Hyp = O=C(O)[C@@H]1C[C@@H](O)CN1

Experiments:
[1] = tested on: subcutaneous U-87MG xenograft tumors; assay: In vivo NIRF optical imaging, subcutaneous xenograft; set-up: species or system nude mice; conditions: for improvement in tumor targeting over LXY1: optical imaging, U-87MG glioblastoma xenograft model, data not shown
From the text: Halogen lamp light source was set to maximum.

[2] = biological target: T1, α3β1 integrin-expressing U-87MG glioblastoma cells (Homo sapiens, UniProt P26006); assay: biochemical; type: binding; conditions: for Relative binding index: peptide 0.4 μM competing with 0.5 μM LXY1-biotin on U-87MG cells, relative to LXY1, greater RBI = higher affinity; for IC50: series of concentrations competing with 0.5 μM LXY1-biotin binding to U-87MG cells
T1 construct: we incubated U-87MG cells which express α3β1 integrin; endogenous in cells; host or cells: U-87MG human glioblastoma cells
T1 sequence (P26006 33-872 limits assumed): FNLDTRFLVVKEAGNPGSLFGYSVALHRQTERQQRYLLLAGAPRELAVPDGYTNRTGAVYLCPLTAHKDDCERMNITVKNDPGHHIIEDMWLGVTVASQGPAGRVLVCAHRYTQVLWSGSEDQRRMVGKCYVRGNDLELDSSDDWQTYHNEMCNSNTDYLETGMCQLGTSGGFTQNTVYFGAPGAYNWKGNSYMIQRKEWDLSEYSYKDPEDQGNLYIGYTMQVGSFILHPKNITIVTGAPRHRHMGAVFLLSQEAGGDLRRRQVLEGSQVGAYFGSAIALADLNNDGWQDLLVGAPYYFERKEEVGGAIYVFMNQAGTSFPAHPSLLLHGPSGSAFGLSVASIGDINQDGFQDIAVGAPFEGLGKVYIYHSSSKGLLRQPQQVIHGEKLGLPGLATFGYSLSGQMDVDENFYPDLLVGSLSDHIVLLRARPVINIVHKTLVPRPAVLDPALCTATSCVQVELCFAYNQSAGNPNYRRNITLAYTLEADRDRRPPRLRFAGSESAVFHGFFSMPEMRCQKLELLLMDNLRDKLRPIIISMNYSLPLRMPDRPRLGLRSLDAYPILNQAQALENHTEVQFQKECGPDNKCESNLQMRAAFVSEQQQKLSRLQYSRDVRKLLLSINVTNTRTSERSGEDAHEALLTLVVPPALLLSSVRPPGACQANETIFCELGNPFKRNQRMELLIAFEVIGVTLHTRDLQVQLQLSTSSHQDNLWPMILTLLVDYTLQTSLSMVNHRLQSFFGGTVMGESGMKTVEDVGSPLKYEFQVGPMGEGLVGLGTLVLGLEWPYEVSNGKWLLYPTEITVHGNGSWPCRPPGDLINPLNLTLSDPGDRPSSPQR
T1 sequence (P26006 873-1051 partner limits assumed): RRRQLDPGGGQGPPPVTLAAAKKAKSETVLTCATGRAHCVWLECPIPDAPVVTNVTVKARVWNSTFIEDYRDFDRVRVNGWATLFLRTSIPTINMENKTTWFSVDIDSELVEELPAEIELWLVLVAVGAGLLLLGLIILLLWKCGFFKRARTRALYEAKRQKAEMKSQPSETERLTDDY
T1 sequence (P05556 21-798 partner): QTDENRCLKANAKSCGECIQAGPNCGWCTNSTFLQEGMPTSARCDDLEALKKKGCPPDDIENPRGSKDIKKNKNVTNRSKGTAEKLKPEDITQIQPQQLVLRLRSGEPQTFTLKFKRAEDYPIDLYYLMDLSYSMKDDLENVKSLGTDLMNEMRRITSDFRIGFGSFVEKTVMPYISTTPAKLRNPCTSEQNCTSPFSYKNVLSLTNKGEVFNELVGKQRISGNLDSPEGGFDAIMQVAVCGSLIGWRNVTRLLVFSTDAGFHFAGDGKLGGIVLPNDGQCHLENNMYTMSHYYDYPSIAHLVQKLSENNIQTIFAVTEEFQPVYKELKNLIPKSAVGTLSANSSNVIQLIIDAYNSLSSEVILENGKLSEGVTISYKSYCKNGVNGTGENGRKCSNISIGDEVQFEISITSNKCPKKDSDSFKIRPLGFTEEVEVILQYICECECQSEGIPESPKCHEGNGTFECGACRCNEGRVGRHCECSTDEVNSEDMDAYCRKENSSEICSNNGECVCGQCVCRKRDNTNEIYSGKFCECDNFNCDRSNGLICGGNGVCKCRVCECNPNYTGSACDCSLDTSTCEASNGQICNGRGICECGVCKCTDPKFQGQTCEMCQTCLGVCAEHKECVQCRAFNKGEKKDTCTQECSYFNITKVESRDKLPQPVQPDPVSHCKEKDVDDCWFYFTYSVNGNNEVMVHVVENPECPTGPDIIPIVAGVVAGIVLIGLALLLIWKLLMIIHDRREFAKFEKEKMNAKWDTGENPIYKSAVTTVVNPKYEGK
Method: (§1) Confluent tumor cells (80-90 %) were dissociated with 0.05 % trypsin-EDTA and neutralized with culture medium. To determine the expression of α3 and β1 integrins, 1 μg of anti-α3 or anti-β1 antibody was mixed with 1 million cells for 30 min, followed by anti-mouse IgG-PE incubation and flow cytometry (Coulter XL-MCL). […] Then each sample was washed three times with 1 mL PBS containing 1 % FBS. Samples thereafter were incubated with a 1:500 dilution of streptavidin-PE (1 mg/mL) for 30 min on ice followed by a single wash with 1 mL of PBS containing 1 % FBS. Finally, the samples in PBS were analyzed by flow cytometry. […] The mixture was then incubated with cancer cells followed by streptavidin-PE. Samples were analyzed by flow cytometry, and mean fluorescence intensity (MFI) was decided for each individual sample. […] For blocking experiments, the samples were incubated with non-biotinylated LXY30, anti-α3, or anti-β1 antibody for 30 min prior to incubation with 20 nM biotinylated LXY30.

BT-20 = assay: LXY30 binding by flow cytometry; set-up: species or system human; conditions: 1µM LXY30; BT-20, breast, basal like
Method: as §1, with “(80–90” for “(80-90”
(§2) *(MFI W/ LXY30)/ (MFI W/O LXY30): Mean Fluorescence Intensity of cells incubated with 1µM LXY30 divided by Mean Fluorescence Intensity of cells without incubation with LXY30.
(§3) Mean Fluorescence Intensity (MFI) was used as the quantitative measurement. The binding strength was grouped into five categories based on the value. “0”: 1 “1+”: 1.1~4.9 “2+”: 5~19.9 “3+”: 20~79.9 “4+”: > or = 80-fold

MCF7 = assay: LXY30 binding by flow cytometry; set-up: species or system human; conditions: 1µM LXY30; MCF7, breast, luminal A
Method: as §1, with “(80–90” for “(80-90”
as §2, §3

HCC827 = assay: LXY30 binding by flow cytometry; set-up: species or system human; conditions: 1µM LXY30; HCC827, lung, adenocarcinoma
Method: as §1, with “(80–90” for “(80-90”
as §2, §3

H460 = assay: LXY30 binding by flow cytometry; set-up: species or system human; conditions: 1µM LXY30; H460, lung, large cell
Method: as §1, with “(80–90” for “(80-90”
as §2, §3

MDA-MB 231 = assay: LXY30 binding by flow cytometry; set-up: species or system human; conditions: 1µM LXY30; MDA-MB 231, breast, basal like
Method: as §1, with “(80–90” for “(80-90”
as §2, §3

T47D = assay: LXY30 binding by flow cytometry; set-up: species or system human; conditions: 1µM LXY30, breast, luminal A
Method: as §1, with “(80–90” for “(80-90”
as §2, §3

H2228 = assay: LXY30 binding by flow cytometry; set-up: species or system human; conditions: 1µM LXY30; H2228, lung, adenocarcinoma
Method: as §1, with “(80–90” for “(80-90”
as §2, §3

H1975 = assay: LXY30 binding by flow cytometry; set-up: species or system human; conditions: 1µM LXY30; H1975, lung, adenocarcinoma
Method: as §1, with “(80–90” for “(80-90”
as §2, §3

SKBR3 = assay: LXY30 binding by flow cytometry; set-up: species or system human; conditions: 1µM LXY30; SKBR3, breast, HER2
Method: as §1, with “(80–90” for “(80-90”
as §2, §3

A549 = assay: LXY30 binding by flow cytometry; set-up: species or system human; conditions: 1µM LXY30; A549, lung, adenocarcinoma
Method: as §1, with “(80–90” for “(80-90”
as §2, §3

H3255 = assay: LXY30 binding by flow cytometry; set-up: species or system human; conditions: 1µM LXY30; H3255, lung, adenocarcinoma
Method: as §1, with “(80–90” for “(80-90”
as §2, §3

H1650 = assay: LXY30 binding by flow cytometry; set-up: species or system human; conditions: 1µM LXY30; H1650, lung, bronchoalveolar
Method: as §1, with “(80–90” for “(80-90”
as §2, §3

[3] = biological target: T2, α3 subunit of α3β1 integrin on U-87MG cells (Homo sapiens, UniProt P26006); assay: Blocking of LXY30-biotin binding to U-87MG cells, flow cytometry; conditions: 100 μM free peptide pre-incubated 30 min before 20 nM LXY30-biotin
T2 construct: we incubated U-87MG cells which express α3β1 integrin; endogenous in cells; host or cells: U-87MG human glioblastoma cells
T2 sequence (P26006 33-872 limits assumed): as the sequence (P26006 33-872 limits assumed) above
T2 sequence (P26006 873-1051 partner limits assumed): as the sequence (P26006 873-1051 partner limits assumed) above
T2 sequence (P05556 21-798 partner): as the sequence (P05556 21-798 partner) above
Method: as §1, with “(80–90” for “(80-90”
Fig. 2 Synthesis and chemical structures of several peptide conjugates and binding specificity of LXY30 to U-87MG cells. The synthesis and chemical structures of peptide conjugates LXY30-biotin, LXY30-FITC, and scrambled-LXY30-FITC (S-LXY30-FITC) used for in vitro and in vivo characterization, as well as imaging studies were shown (a). […]

[4] = In vitro stability assay in human plasma; type: in vitro ADME; conditions: 90% human plasma (EDTA, healthy donors); 200 µM in 90% human plasma, 37°C, up to 8 days, RP-HPLC; t1/2=1/kobs·ln(2)
Method: Figure S3. The in vitro stability of LXY30 in human plasma. LXY30 was incubated with 90% human plasma from healthy donor at 37°C for up to 8 days. The peptide concentrations were determined by integration of the LXY30 peak (area) from reversed-phase high-performance liquid chromatography (RP-HPLC) chromatograms at UV 214 nm. The half-life of LXY30 in the plasma was calculated as 16.0 days using the formula t1/2=1/kobs·ln(2). Assays were performed in triplicate.
Human plasma was separated from the peripheral blood collected in the EDTA-containing blood collection tube from healthy donors. One hundred microliters of LXY30 solution (2 mM in water) was mixed with 900 µL of plasma (final concentration of LXY30 was 200 µM) and incubated at 37°C under sterile conditions. […] A control plasma sample without LXY30 but treated in the same manner was also analyzed. […]
RP-HPLC analysis was performed on the Waters 2996 HPLC system equipped with a Luna® analytical column from Phenomenex (5 µm, C18, 100 A°, 250 x 4.6 mm). […] The relative concentrations of the remaining LXY30 were analyzed by the integration of the absorbance at 214 nm (area).
Half-life (t1/2) for LXY30 in the plasma solution was calculated from plots of the natural logarithm of the residual concentration against time using the formula t1/2=1/kobs·ln(2), where kobs is the apparent first order rate constant for the observed degradation.

For NC(=O)C[C@@H]1NC(=O)[C@@H]2C[C@@H](O)CN2C(=O)CNC(=O)[C@H](Cc2cc(F)cc(F)c2)NC(=O)CNC(=O)[C@@H](CC(=O)O)NC(=O)[C@H](N)CSSC[C@H](C(N)=O)NC1=O [LXY4, cdG-Phe(3,5-diF)-G-Hyp-Nc] (H-[dC][dD]G[Phe(3,5-F2)]G[Hyp]N[dC]-NH2; disulfide 1-8; N-terminus assumed), the “improvement in tumor targeting over LXY1” value [1] was “did not show improvement”, the Relative binding index [2] was 1.36 ± 0.11 and the IC50 [2] was 410 ± 30 nM.

N=C(N)NCCC[C@H](NC(=O)[C@H]1CSSC[C@@H](N)C(=O)N[C@H](CC(=O)O)C(=O)NCC(=O)N[C@@H](Cc2cc(F)c(F)c(F)c2)C(=O)NCC(=O)N2C[C@H](O)C[C@H]2C(=O)N[C@@H](CC(N)=O)C(=O)N1)C(N)=O [LXY7] (H-[dC][dD]G[Phe(3,4,5-F3)]G[Hyp]N[dC]R-NH2; disulfide 1-8; N-terminus assumed) showed a Relative binding index [2] of 1.62 ± 0.10 and an IC50 [2] of 130 ± 12 nM.

With N=C(N)NCCC[C@H](NC(=O)[C@H]1CSSC[C@@H](N)C(=O)N[C@H](CC(=O)O)C(=O)NCC(=O)N[C@@H](Cc2cc(F)cc(F)c2)C(=O)NCC(=O)N2C[C@H](O)C[C@H]2C(=O)N[C@@H](CC(N)=O)C(=O)N1)C(N)=O [LXY30, cdG-Phe(3,5-diF)-G-Hyp-NcR] (H-[dC][dD]G[Phe(3,5-F2)]G[Hyp]N[dC]R-NH2; disulfide 1-8; N-terminus assumed) the “(MFI W/ LXY30)/ (MFI W/O LXY30)” value (BT-20) was 2+ (“2+”: 5~19.9), the “(MFI W/ LXY30)/ (MFI W/O LXY30)” value (MCF7) was 2+ (“2+”: 5~19.9) and the “(MFI W/ LXY30)/ (MFI W/O LXY30)” value (HCC827) was 4+ (“4+”: > or = 80-fold). For the same compound, the “(MFI W/ LXY30)/ (MFI W/O LXY30)” value (H460) was 1+ (“1+”: 1.1~4.9), the “(MFI W/ LXY30)/ (MFI W/O LXY30)” value (MDA-MB 231) was 4+ (“4+”: > or = 80-fold) and the “(MFI W/ LXY30)/ (MFI W/O LXY30)” value (T47D) was 1+ (“1+”: 1.1~4.9). For the same compound, the “(MFI W/ LXY30)/ (MFI W/O LXY30)” value (H2228) was 4+ (“4+”: > or = 80-fold), the “(MFI W/ LXY30)/ (MFI W/O LXY30)” value (H1975) was 4+ (“4+”: > or = 80-fold) and the “(MFI W/ LXY30)/ (MFI W/O LXY30)” value (SKBR3) was 1+ (“1+”: 1.1~4.9). For the same compound, the “(MFI W/ LXY30)/ (MFI W/O LXY30)” value (A549) was 4+ (“4+”: > or = 80-fold), the “(MFI W/ LXY30)/ (MFI W/O LXY30)” value (H3255) was 2+ (“2+”: 5~19.9) and the “(MFI W/ LXY30)/ (MFI W/O LXY30)” value (H1650) was 4+ (“4+”: > or = 80-fold). For the same compound, the “blocking of LXY30-biotin binding by free peptide” value [3] was “inhibited or prevented”, the “MFI of tumor, fold over LXY1” value ([1]; tail vein, 1.8 nmol complex, ROI on xenograft tumor) was 1.4 folds and the “fold higher binding affinity compared to LXY1” value ([2]; U-87MG cells, from IC50 values) was 44 fold. It also gave a Relative binding index [2] of 1.68 ± 0.10, an IC50 [2] of 80 ± 10 nM and a half-life at 200 µM [4] of 16 days.

In the case of cdG-Tyr(3-NO2)-G-Hyp-Nc [LXY3], the “improvement in tumor targeting over LXY1” value [1] is reported as “did not show improvement”.
